In US20030113815A1, “Canine peroxisome proliferator activated receptor gamma” (Pfizer Inc., priority 2001, published 2003):

Test system: TNF-α expression in canine DH82 cells
Test: Effect of PPARγ agonist on TNF-α mRNA levels (Q-PCR) in canine DH82 cells
Assay type: cell-based
Conditions: two hours, normalized to GAPDH
Experimental: Canine DH82 cells (ATCC No. CRL-10389) were cultured in RPMI 1640 medium containing 2 mM L-glutamine, 25 mM Hepes, 10% fetal bovine serum (FBS) and 1× antimycotic at 37° C., 95% humidity, and 5% CO2. Cells were treated with 10 nM PMA (Sigma-Aldrich, St. Louis, Mo.), PMA (10 nM) plus darglitazone (10 uM), and darglitazone (10 μM), respectively for two hours. After treatment, cell RNA lysis buffer was added to the cells. Samples were loaded into MagNa Pure™ machine (F. Hoffmann-La Roche, Basel, Switzerland). MagNa Pure LC™ RNA isolation Kit II (F. Hoffmann-La Roche) was used for isolation of total RNA from culture cells. First strand cDNA synthesis kit for RT-PCR (F. Hoffmann-La Roche) was used to synthesize cDNA. Samples were incubated at 25° C. for 10 minutes and then at 42° C. for 60 minutes, denatured at 90° C. for 5 minutes and cooled to 4° C. for 1-2 hr or at −20° C. for longer periods. Quantification PCR (Q-PCR) was performed using the Lightcycler Faster DNA Master SYBR Green 1™ kit (F. Hoffmann-La Roche) using canine TNF-α primers (forward primer: 5′ […], reverse primer: 5′ […]). […] For quantification, melting points were measured every 0.2° C. from 60° C. to 99° C. using fluorescence detection. […]

**Q.** How did the “reduction of TNF-α expression in PMA stimulated cells” value (PMA 10 nM plus darglitazone 10 uM, FIG. 2B) turn out when Cc1oc(-c2ccccc2)nc1CCC(=O)c1ccc(CC2SC(=O)NC2=O)cc1 (centres unmarked) [darglitazone] was run?
**A.** about 15%

**Q.** What about the “reduction of TNF-α expression from the basal level” value (unstimulated, darglitazone 10 μM, control basal level = 100%, FIG. 2A) of the same molecule?
**A.** about 40%
